Measured values from ChEMBL document CHEMBL4420075, “Seriniquinones, melanoma-specific anticancer agents” (2016).

System: HCT-116
Experiment: Cytotoxicity in human HCT116 cells by MTT assay
Format: functional, cell-based

## O=c1c2cc(O)ccc2c(=O)c2c1sc1c(=O)c3cc(O)ccc3c(=O)c12
  IC50: 4400 nM

## CC(=O)Oc1ccc2c(=O)c3sc4c(=O)c5cc(O)ccc5c(=O)c4c3c(=O)c2c1
  IC50: 3500 nM

## O=C(Nc1ccc2c(=O)c3sc4c(=O)c5ccc(NC(=O)C(F)(F)F)cc5c(=O)c4c3c(=O)c2c1)C(F)(F)F
  IC50: 480 nM

## O=c1c2ccccc2c(=O)c2c1sc1c(=O)c3cc(O)ccc3c(=O)c12
  IC50: 1300 nM

## CC(=O)Oc1ccc2c(=O)c3c(sc4c(=O)c5ccc(O)cc5c(=O)c43)c(=O)c2c1
  IC50: 1800 nM

## CC(=O)Oc1ccc2c(=O)c3c(sc4c(=O)c5cc(O)ccc5c(=O)c43)c(=O)c2c1
  IC50: 1600 nM

## O=c1c2ccccc2c(=O)c2c1sc1c(=O)c3ccc(Cl)cc3c(=O)c12
  IC50: 280 nM

## O=C(Nc1ccc2c(=O)c3c(sc4c(=O)c5cc(NC(=O)C(F)(F)F)ccc5c(=O)c43)c(=O)c2c1)C(F)(F)F
  IC50: 580 nM

## O=c1c2ccc(O)cc2c(=O)c2c1sc1c(=O)c3ccc(O)cc3c(=O)c12
  IC50: 1600 nM

## O=c1c2ccccc2c(=O)c2c1sc1c(=O)c3cc(Cl)ccc3c(=O)c12
  IC50: 150 nM

## O=c1c2ccccc2c(=O)c2c1sc1c(=O)c3ccc(O)cc3c(=O)c12
  IC50: 1200 nM

## CC(=O)Oc1ccc2c(=O)c3c(sc4c(=O)c5cc(OC(C)=O)ccc5c(=O)c43)c(=O)c2c1
  IC50: 5800 nM
